Results reported in PMC8720286 (Chemical biology & drug design, 2020).
≈ marks a conversion by molar mass, not a printed value.

Columns and labels:
Assay in all cases: microbe, parasite or virus in culture
Mtb R506/XDR = format: cell-based; settings: Mycobacterium tuberculosis, read-out: Mtb MIC R506/XDR
Mtb V2475/MDR = format: cell-based; settings: Mycobacterium tuberculosis, read-out: Mtb MIC V2475/MDR
Mtb TF274/XDR = format: cell-based; settings: Mycobacterium tuberculosis, read-out: Mtb MIC TF274/XDR
Mtb KZN494/MDR = format: cell-based, Mycobacterium tuberculosis; settings: Mycobacterium tuberculosis, KZN494/MDR, read-out: Mtb MIC KZN494/MDR

Row | Compound | MIC (Mtb R506/XDR) [µM] | MIC (Mtb V2475/MDR) [µM] | MIC (Mtb TF274/XDR) [µM] | MIC (Mtb KZN494/MDR) [µM]
1 | Cc1ccc2nc(C)c(C(=O)NCCCC3CCCCC3)n2c1 [Compound 15, N-(3-cyclohexylpropyl)-2,6-dimethylimidazo[1,2-a]pyridine-3-carboxamide] | 0.1 (≈ 0.0313 µg/mL) | 0.2 (≈ 0.0627 µg/mL) | 0.2 (≈ 0.0627 µg/mL) | 0.05 (≈ 0.0157 µg/mL)
2 | Cc1nc2ccc(Cl)cn2c1C(=O)NCCCC1CCCCC1 [Compound 16, 6-chloro-N-(3-cyclohexylpropyl)-2-methylimidazo[1,2-a]pyridine-3-carboxamide] | 0.75 (≈ 0.25 µg/mL) | 0.37 (≈ 0.124 µg/mL) | 1.5 (≈ 0.501 µg/mL) | 0.09 (≈ 0.03 µg/mL)
